{"source": "patent US6770287B1", "about": "“Biocidal cellulosic material” (The Regents of the University of California, priority 2000, dated 2004)", "key": {"[1]": {"test_system": "S. aureus", "assay": "AATCC Test Method 100 quantitative antibacterial test (bacterial reduction)", "format": "cell-based, Staphylococcu aureus (ATCC 5368)", "settings": "Anti-1 4%, contact time 60 min", "text": "(§1) AATCC Test Method 100 was adopted in this study. According to this test method, four pieces of staked circular fabric swatches 4.8±0.1 (about one grams) were inoculated with 1.0±0.1 milliliter of inoculum in a 250 milliliter jar. The inoculum was a nutrient broth culture containing over 1.0×10^6 clone forming units (CFU) of organisms. After the swatches were inoculated, they were neutralized by 100 milliliter of a 0.02% sodium thiosulfate solution in the jar. The contact time was the time between inoculation and neutralization. The jar was vigorously shaken and the neutralized solution was diluted in serial. The dilutions, usually 100, 101, and 102, were plated on nutrient agar and incubated for 18-24 hours at 37° C. The number of bacteria recovered from the inoculated finished fabrics was counted and compared with that from untreated fabrics. Six log reduction means the total inactivation of bacteria, and one log reduction means that finished fabrics reduced bacteria counts from 106 CFU to 105 CFU.\n(§2) Finished fabrics prepared from solutions containing 1%-6% of monomethylol-5,5-dimethylhydantoin following the protocol set forth in Example 1 with pickup rates below 1% have been tested.\n(§3) Fabrics finished in accordance with the protocol set forth in Example II with Anti-2, i.e., 1,3-dimethylol-5,5-dimethylhydantoin, were also tested with AATCC test method 100, which was briefly described in Example IV. In the tests, a diluted CLOROX® solution containing 0.01 % active chlorine was used to chlorinate the finished fabrics."}, "[2]": {"test_system": "S. aureus", "assay": "AATCC Test Method 147 qualitative antibacterial test (inhibition zone)", "format": "cell-based, Staphylococcu aureus (ATCC 5368)"}, "[3]": {"test_system": "E. coli", "assay": "AATCC Test Method 147 qualitative antibacterial test (inhibition zone)", "format": "cell-based, Escherichia coli (ATCC 2666)"}, "[4]": {"test_system": "E. coli", "assay": "AATCC Test Method 147 qualitative antibacterial test (inhibition zone)", "format": "cell-based, Escherichia coli (ATCC 2666)", "text": "Fabric samples of #405 (pure cotton, Testfabrics, Inc., Middlesex, N.J.) and # 7402 (cotton/polyester 35/65, Testfabrics, Inc., Middlesex, N.J.) were finished in a manner similar to that set forth in Example I. The concentration of the finishing agent used was from about 5 to 15% in the finishing of the cotton fabrics and from about 5 to 20% in the finishing of the cotton/polyester (35/65) blend fabric because of the lower concentration of cellulose in the blend. The final biocidal property was imparted onto the finished fabrics by washing them with a diluted CLOROX® solution containing 0.25% chlorine after each washing circle. Qualitative antibacterial tests were conducted according to AATCC Test Method 147.\nIn the AATCC Test Method 147, two pieces of chlorinated fabrics with the size of 25 mm×50 mm were placed on a nutrient agar plate which had been inoculated by five streaks of a diluted bacteria solution using a 4 mm inoculating loop. The diluted bacteria solution was prepared by transferring 1.0 milliliter of 24 hour broth culture into 9.0 milliliter of sterile distilled water. The agar plate was incubated at 37° C. for 18-24 hours. The minimum width of inhibition zone along a streak on either side of the test specimen are measured. Table I sets forth the qualitative biocidal evaluations of the finished fabrics with different concentration of the agent Anti-1.", "remark": "listed apart in the source"}, "[5]": {"test_system": "E. coli", "assay": "AATCC Test Method 100 quantitative antibacterial test (bacterial reduction)", "format": "cell-based, Escherichia coli (ATCC 2666)", "settings": "Anti-1 4%, contact time 60 min", "text": "as §1, §2, §3"}, "[6]": {"settings": "Dacron/Cotton 65/35 #7402, add-on 1.19%"}, "[7]": {"settings": "Terry cloth 100% Cotton, add-on 1.40%"}, "[8]": {"settings": "#405 cotton, Anti-1 5%, add-on 1.2%"}, "[9]": {"settings": "#405 cotton, Anti-1 10%, add-on 2.3%"}, "[10]": {"settings": "#405 cotton, Anti-1 15%, add-on 3.1%"}, "[11]": {"settings": "#7402 cotton/polyester 35/65, Anti-1 5%, add-on 0.8%"}, "[12]": {"settings": "#7402 cotton/polyester 35/65, Anti-1 10%, add-on 1.4%"}, "[13]": {"settings": "#7402 cotton/polyester 35/65, Anti-1 15%, add-on 1.6%"}, "[14]": {"settings": "#7402 cotton/polyester 35/65, Anti-1 20%, add-on 2.0%"}}}
{"smiles": "CC1(C)NC(=O)N(CO)C1=O", "note": "[Anti-1, monomethylol-5,5-dimethylhydantoin]", "values": [{"measurement": "Bacterial Reduction Rates After twenty washings S. aur.", "setting": "[1]; Cl 0.1%, #7409", "value": 6, "unit": "log"}, {"measurement": "Bacterial Reduction Rates After fifteen washings S. aur.", "setting": "[1]; Cl 0.25%, #400", "value": 0, "unit": "log"}, {"measurement": "Bacterial Reduction Rates After five Washings S. aur.", "setting": "[1]; Cl 0.25%, #400", "value": 6, "unit": "log"}, {"measurement": "Bacterial Reduction Rates After ten Washings S. aur.", "setting": "[1]; Cl 0.25%, #400", "value": 0, "unit": "log"}, {"measurement": "Bacterial Reduction Rates After twenty washings S. aur.", "setting": "[1]; Cl 0.25%, #400", "value": 0, "unit": "log"}, {"measurement": "Bacterial Reduction Rates After fifteen washings S. aur.", "setting": "[1]; Cl 0.25%, #7409", "value": 6, "unit": "log"}, {"measurement": "Bacterial Reduction Rates After five Washings S. aur.", "setting": "[1]; Cl 0.25%, #7409", "value": 6, "unit": "log"}, {"measurement": "Bacterial Reduction Rates After ten Washings S. aur.", "setting": "[1]; Cl 0.25%, #7409", "value": 6, "unit": "log"}, {"measurement": "Bacterial Reduction Rates After twenty washings S. aur.", "setting": "[1]; Cl 0.25%, #7409", "value": 1, "unit": "log"}, {"measurement": "Biocidal results against S. aureus after being activated", "setting": "[2]; [6]", "value": ">4.0", "unit": "mm"}, {"measurement": "Biocidal results against S. aureus after being activated", "setting": "[2]; Rayon, add-on 1.21%", "value": ">1.0", "unit": "mm"}, {"measurement": "Biocidal results against S. aureus after being activated", "setting": "[2]; [7]", "value": "kill all"}, {"measurement": "Biocidal results against E. coli after being activated", "setting": "[3]; Cotton cloth #400, add-on 1.43%", "value": ">2.0", "unit": "mm"}, {"measurement": "Biocidal results against E. coli after being activated", "setting": "[3]; [6]", "value": ">10", "unit": "mm"}, {"measurement": "Biocidal results against E. coli after being activated", "setting": "[3]; Rayon, add-on 1.21%", "value": ">1.0", "unit": "mm"}, {"measurement": "Biocidal results against E. coli after being activated", "setting": "[3]; [7]", "value": ">10", "unit": "mm"}, {"measurement": "Biocidal Results After 20 Times Washing E. coli", "setting": "[4]; [8]", "value": ">3", "unit": "mm"}, {"measurement": "Biocidal Results After 50 Times Washing E. coli", "setting": "[4]; [8]", "value": ">1", "unit": "mm"}, {"measurement": "Biocidal Results After 20 Times Washing E. coli", "setting": "[4]; [9]", "value": ">8", "unit": "mm"}, {"measurement": "Biocidal Results After 50 Times Washing E. coli", "setting": "[4]; [9]", "value": ">3", "unit": "mm"}, {"measurement": "Biocidal Results After 20 Times Washing E. coli", "setting": "[4]; [10]", "value": "kill all"}, {"measurement": "Biocidal Results After 50 Times Washing E. coli", "setting": "[4]; [10]", "value": ">4", "unit": "mm"}, {"measurement": "Biocidal Results After 20 Times Washing E. coli", "setting": "[4]; [11]", "value": ">3", "unit": "mm"}, {"measurement": "Biocidal Results After 50 Times Washing E. coli", "setting": "[4]; [11]", "value": ">1", "unit": "mm"}, {"measurement": "Biocidal Results After 20 Times Washing E. coli", "setting": "[4]; [12]", "value": ">3", "unit": "mm"}, {"measurement": "Biocidal Results After 50 Times Washing E. coli", "setting": "[4]; [12]", "value": ">2", "unit": "mm"}, {"measurement": "Biocidal Results After 20 Times Washing E. coli", "setting": "[4]; [13]", "value": "kill all"}, {"measurement": "Biocidal Results After 50 Times Washing E. coli", "setting": "[4]; [13]", "value": ">2", "unit": "mm"}, {"measurement": "Biocidal Results After 20 Times Washing E. coli", "setting": "[4]; [14]", "value": "kill all"}, {"measurement": "Biocidal Results After 50 Times Washing E. coli", "setting": "[4]; [14]", "value": ">3", "unit": "mm"}, {"measurement": "Bacterial Reduction Rates After fifteen washings E. coli", "setting": "[5]; Cl 0.01%, #400", "value": 6, "unit": "log"}, {"measurement": "Bacterial Reduction Rates After five Washings E. coli", "setting": "[5]; Cl 0.01%, #400", "value": 6, "unit": "log"}, {"measurement": "Bacterial Reduction Rates After ten Washings E. coli", "setting": "[5]; Cl 0.01%, #400", "value": 6, "unit": "log"}, {"measurement": "Bacterial Reduction Rates After twenty washings E. coli", "setting": "[5]; Cl 0.01%, #400", "value": 6, "unit": "log"}, {"measurement": "Bacterial Reduction Rates After fifteen washings E. coli", "setting": "[5]; Cl 0.01%, #7409", "value": 6, "unit": "log"}, {"measurement": "Bacterial Reduction Rates After five Washings E. coli", "setting": "[5]; Cl 0.01%, #7409", "value": 6, "unit": "log"}, {"measurement": "Bacterial Reduction Rates After ten Washings E. coli", "setting": "[5]; Cl 0.01%, #7409", "value": 6, "unit": "log"}, {"measurement": "Bacterial Reduction Rates After twenty washings E. coli", "setting": "[5]; Cl 0.01%, #7409", "value": 6, "unit": "log"}, {"measurement": "Bacterial Reduction Rates After fifteen washings E. coli", "setting": "[5]; Cl 0.1%, #400", "value": 6, "unit": "log"}, {"measurement": "Bacterial Reduction Rates After five Washings E. coli", "setting": "[5]; Cl 0.1%, #400", "value": 6, "unit": "log"}, {"measurement": "Bacterial Reduction Rates After ten Washings E. coli", "setting": "[5]; Cl 0.1%, #400", "value": 6, "unit": "log"}, {"measurement": "Bacterial Reduction Rates After twenty washings E. coli", "setting": "[5]; Cl 0.1%, #400", "value": 1, "unit": "log"}, {"measurement": "Bacterial Reduction Rates After fifteen washings E. coli", "setting": "[5]; Cl 0.1%, #7409", "value": 6, "unit": "log"}, {"measurement": "Bacterial Reduction Rates After five Washings E. coli", "setting": "[5]; Cl 0.1%, #7409", "value": 6, "unit": "log"}, {"measurement": "Bacterial Reduction Rates After ten Washings E. coli", "setting": "[5]; Cl 0.1%, #7409", "value": 6, "unit": "log"}, {"measurement": "Bacterial Reduction Rates After twenty washings E. coli", "setting": "[5]; Cl 0.1%, #7409", "value": 6, "unit": "log"}, {"measurement": "Bacterial Reduction Rates After fifteen washings E. coli", "setting": "[5]; Cl 0.25%, #400", "value": 1, "unit": "log"}, {"measurement": "Bacterial Reduction Rates After five Washings E. coli", "setting": "[5]; Cl 0.25%, #400", "value": 6, "unit": "log"}, {"measurement": "Bacterial Reduction Rates After ten Washings E. coli", "setting": "[5]; Cl 0.25%, #400", "value": 2, "unit": "log"}, {"measurement": "Bacterial Reduction Rates After twenty washings E. coli", "setting": "[5]; Cl 0.25%, #400", "value": 1, "unit": "log"}, {"measurement": "Bacterial Reduction Rates After fifteen washings E. coli", "setting": "[5]; Cl 0.25%, #7409", "value": 6, "unit": "log"}, {"measurement": "Bacterial Reduction Rates After five Washings E. coli", "setting": "[5]; Cl 0.25%, #7409", "value": 6, "unit": "log"}, {"measurement": "Bacterial Reduction Rates After ten Washings E. coli", "setting": "[5]; Cl 0.25%, #7409", "value": 6, "unit": "log"}, {"measurement": "Bacterial Reduction Rates After twenty washings E. coli", "setting": "[5]; Cl 0.25%, #7409", "value": 1, "unit": "log"}]}
